The target of one assay is EGFR^Del19/T790M/C797S (Homo sapiens, UniProt P00533, C797S/DEL746-750/T790M). As to the kind of experiment: EGFR inhibitory activity assay (TK-substrate-biotin/ATP, 665/615 ratio). As to conditions: kinase inhibition. The class given is biochemical. As for the experimental part:
(§1) EGFR Inhibitory Activity Assay
(§2) (2) The plate was sealed, and centrifuged at 1,000 g for 1 min;
(§3) (4) 5 μl of the 2×EGFR protein working solution was added to the 384-well plate from step (2), centrifuged at 1,000 g for 30 s, and allowed to stand at room temperature (mixed thoroughly) for 10 min;
(§4) (6) 5 µL of the TK-substrate-biotin and ATP (the mixture prepared in step (5)) was added to the 384-well plate from step (4) to initiate the reaction;
(§5) (7) The mixture was centrifuged at 1,000 g for 30 s; the plate was sealed, and allowed to stand (and reacted) at room temperature for 40 min;
(§6) (10) The mixture was centrifuged at 1,000 g for 30 s, and allowed to stand (reacted) at room temperature for 1 h;
(§7) Formula of inhibition rate (%): […]
(§8) The nonlinear regression curve (dose response-variable slope) between the value of inhibition rate (%) and the logarithm of compound concentration was fitted with graphpad prism 8.0, the effect dose curve of compound was drawn, and the IC50 value was calculated.

Another assay deals with EGFR^L858R/T790M/C797S (Homo sapiens, UniProt P00533, C797S/L858R/T790M). The assay is described as above. The assay is classed as biochemical. The conditions noted are these: kinase inhibition. As for the experimental part: as §1
(1) A compound stock solution was prepared and diluted 3× to obtain a compound dilution; 10 nL of the compound dilution was transferred to a 384-well plate (784075, Greiner) by Echo 550;
as §2, §3, §4, §5
(8) 4×Sa-XL 665 and TK-antibody-Cryptate were prepared with detection buffer;
(9) 5 µL of the Sa-XL 665 and 5 µL of the TK-antibody-Cryptate were added successively to the 384-well plate from step (7);
as §6
(11) The fluorescence values were read at 615 nm and 665 nm by enzyme labeling instrument (PerkinElmer, 74785).
The ratio (665/615) of each well was calculated.
as §7
Ratiocmpd: Ratio (665/615) value of assay compound.
Ratiopositive: Average ratio (665/615) value of positive control.
Ratiovehicle: Average ratio (665/615) value of negative control.
as §8

The target of assay [1] is Ba/F3(EGFR^L858R/T790M/C797S) cells (Homo sapiens, UniProt P00533, T790M/C797S/L858R, cells depend on it). As to the kind of experiment: Assay of activity on Ba/F3 cells (CTG, 72 h). The class given is cell-based. The conditions noted are these: read-out: IC50 (nM) Ba/F3 (EGFR^L858R/T790M/C797S). Put shortly: (§9)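 Ba/F3 cells dependent on each EGFR triple mutant were exposed to 3-fold compound dilutions for 72 h at 37° C, 5% CO2, with CellTiter-Glo luminescence as the read-out.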

The target in another assay is ALK (Homo sapiens, UniProt Q9UM73). The experiment in a line: Assay of activity on ALK kinase. As to conditions: kinase inhibition. The assay is classed as biochemical. As for the experimental part:
(§10) Assay of activity on ALK kinase
(§11) (1) A compound stock solution was prepared;
(§12) (2) The compound stock solution was diluted 3× to obtain a compound dilution;
(§13) (5) 5 μl of the 2× kinase working solution was added to the reaction plate, centrifuged at 1,000 rpm for 1 min, and incubated at 25° C. for 15 min;
(§14) (7) 5 μl of the TK-substrate-biotin and ATP (the mixture prepared in step (6)) was added to initiate the reaction;
(§15) (8) The mixture was centrifuged at 1,000 g for 30 s; the plate was sealed, and incubated at 25° C. for 60 min;
(§16) (11) The mixture was centrifuged at 1,000 g for 1 min, and incubated at 25° C. for 60 min;
as §7, §8
(§17) Y=Bottom+(Top−Bottom)/(1+10^((LogIC50−X)*Hill Slope))
(§18) X-axis: logarithm of compound concentration; Y axis: inhibition rate ([…])

A further assay addresses ALK^G1202R (Homo sapiens, UniProt Q9UM73, G1202R). As to the kind of experiment: Assay of activity on ALK kinase. The assay is classed as biochemical. As to conditions: kinase inhibition. As for the experimental part: as §10, §11, §12, §13, §14, §15, §16, §7, §8, §17, §18
The target in a further assay is T1, Ba/F3(EML4-ALK) cells (Homo sapiens, UniProt Q9UM73).
T1 construct: fused on or other part: Q9HC35 (Echinoderm microtubule-associated protein-like 4)
The experiment in a line: Assay of activity on Ba/F3(EML4-ALK) cells (CTG, 72 h). As to conditions: read-out: IC50 (nM) Ba/F3(EML4-ALK). The assay is classed as cell-based. The gist of the method: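 Ba/F3(EML4-ALK) cells, 700 per well, were exposed to 3-fold serial compound dilutions for 72 h at 37° C, 5% CO2, and viability was then read by CTG luminescence.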

The target of assay [2] is Ba/F3(EGFR^Del19/T790M/C797S) cells (Homo sapiens, UniProt P00533, DEL746-750/T790M/C797S, cells depend on it). As to the kind of experiment: Assay of activity on Ba/F3 cells (CTG, 72 h). As to conditions: read-out: IC50 (nM) Ba/F3 (EGFR^Del19/T790M/C797S). The class given is cell-based. The gist of the method:
as §9

For eleven compounds, IC50 and GI50 results are on record in patent publication US20220306659A1, “COMPOUND INHIBITING AND INDUCING DEGRADATION OF EGFR AND ALK” (BEIJING TIDE PHARMACEUTICAL CO., LTD., priority 2019, published 2022).

Structures are written as SMILES.

Chain of Ba/F3(EGFR^Del19/T790M/C797S) cells (P00533 with tags, fused parts or gaps DEL746-750/T790M/C797S): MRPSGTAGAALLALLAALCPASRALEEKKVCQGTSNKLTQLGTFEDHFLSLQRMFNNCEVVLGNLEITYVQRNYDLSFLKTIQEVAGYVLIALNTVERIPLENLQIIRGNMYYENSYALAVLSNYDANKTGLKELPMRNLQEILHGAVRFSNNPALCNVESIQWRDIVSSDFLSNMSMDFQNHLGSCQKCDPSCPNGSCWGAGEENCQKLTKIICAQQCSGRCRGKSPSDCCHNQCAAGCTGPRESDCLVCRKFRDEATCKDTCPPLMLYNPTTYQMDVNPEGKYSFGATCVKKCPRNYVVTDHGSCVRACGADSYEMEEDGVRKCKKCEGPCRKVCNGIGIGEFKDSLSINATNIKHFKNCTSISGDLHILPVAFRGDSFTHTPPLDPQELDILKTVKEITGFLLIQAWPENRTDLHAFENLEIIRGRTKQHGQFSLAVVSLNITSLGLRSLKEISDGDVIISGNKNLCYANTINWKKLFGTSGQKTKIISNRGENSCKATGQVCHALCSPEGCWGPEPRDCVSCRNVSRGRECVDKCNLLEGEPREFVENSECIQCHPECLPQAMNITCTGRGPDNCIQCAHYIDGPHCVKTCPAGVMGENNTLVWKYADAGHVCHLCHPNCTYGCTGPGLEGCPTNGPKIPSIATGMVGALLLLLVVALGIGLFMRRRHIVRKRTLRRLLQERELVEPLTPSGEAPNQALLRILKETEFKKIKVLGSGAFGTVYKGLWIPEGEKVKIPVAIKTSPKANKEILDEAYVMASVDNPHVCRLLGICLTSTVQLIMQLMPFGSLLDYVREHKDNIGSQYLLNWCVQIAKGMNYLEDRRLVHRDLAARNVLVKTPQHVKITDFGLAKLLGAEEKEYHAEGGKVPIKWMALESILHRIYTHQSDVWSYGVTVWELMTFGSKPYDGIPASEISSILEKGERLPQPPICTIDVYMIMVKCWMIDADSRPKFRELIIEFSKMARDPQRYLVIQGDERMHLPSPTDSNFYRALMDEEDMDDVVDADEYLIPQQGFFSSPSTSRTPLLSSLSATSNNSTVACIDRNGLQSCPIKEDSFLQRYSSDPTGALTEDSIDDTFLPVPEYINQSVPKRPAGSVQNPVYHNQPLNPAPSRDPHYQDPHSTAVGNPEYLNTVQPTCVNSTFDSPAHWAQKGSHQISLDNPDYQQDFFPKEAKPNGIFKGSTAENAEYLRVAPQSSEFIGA
Chain of EGFR^L858R/T790M/C797S (P00533 25-1210 T790M/C797S/L858R): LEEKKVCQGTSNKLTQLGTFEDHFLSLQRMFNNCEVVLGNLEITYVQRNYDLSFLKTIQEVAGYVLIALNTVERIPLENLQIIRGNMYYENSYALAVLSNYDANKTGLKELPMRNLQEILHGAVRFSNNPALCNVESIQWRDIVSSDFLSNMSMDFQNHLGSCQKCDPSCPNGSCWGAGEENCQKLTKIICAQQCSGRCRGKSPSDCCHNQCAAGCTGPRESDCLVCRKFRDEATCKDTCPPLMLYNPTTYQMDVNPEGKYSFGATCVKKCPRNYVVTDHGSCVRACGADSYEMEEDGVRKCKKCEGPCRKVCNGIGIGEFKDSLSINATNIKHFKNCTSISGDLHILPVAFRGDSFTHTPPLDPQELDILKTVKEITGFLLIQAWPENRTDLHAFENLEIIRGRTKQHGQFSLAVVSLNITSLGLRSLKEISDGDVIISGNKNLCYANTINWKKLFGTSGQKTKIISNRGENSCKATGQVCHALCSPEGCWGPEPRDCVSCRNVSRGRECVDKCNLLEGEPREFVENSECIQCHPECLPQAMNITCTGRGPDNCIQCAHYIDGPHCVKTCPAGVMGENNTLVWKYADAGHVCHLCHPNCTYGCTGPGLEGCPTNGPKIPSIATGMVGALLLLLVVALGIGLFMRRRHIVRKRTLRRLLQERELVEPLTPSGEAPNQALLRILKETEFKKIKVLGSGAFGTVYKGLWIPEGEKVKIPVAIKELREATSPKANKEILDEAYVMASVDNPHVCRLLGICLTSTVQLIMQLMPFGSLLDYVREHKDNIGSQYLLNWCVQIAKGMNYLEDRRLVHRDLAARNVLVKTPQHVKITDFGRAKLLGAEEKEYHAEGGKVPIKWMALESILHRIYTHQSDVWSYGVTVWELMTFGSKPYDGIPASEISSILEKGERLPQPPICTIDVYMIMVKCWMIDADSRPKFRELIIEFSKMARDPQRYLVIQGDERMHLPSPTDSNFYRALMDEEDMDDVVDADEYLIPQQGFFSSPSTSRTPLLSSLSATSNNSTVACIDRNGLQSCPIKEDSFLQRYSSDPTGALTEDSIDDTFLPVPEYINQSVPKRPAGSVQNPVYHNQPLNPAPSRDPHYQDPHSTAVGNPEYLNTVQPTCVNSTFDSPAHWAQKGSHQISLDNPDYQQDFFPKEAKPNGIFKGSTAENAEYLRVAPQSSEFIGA
Chain of ALK^G1202R (Q9UM73 19-1620 G1202R): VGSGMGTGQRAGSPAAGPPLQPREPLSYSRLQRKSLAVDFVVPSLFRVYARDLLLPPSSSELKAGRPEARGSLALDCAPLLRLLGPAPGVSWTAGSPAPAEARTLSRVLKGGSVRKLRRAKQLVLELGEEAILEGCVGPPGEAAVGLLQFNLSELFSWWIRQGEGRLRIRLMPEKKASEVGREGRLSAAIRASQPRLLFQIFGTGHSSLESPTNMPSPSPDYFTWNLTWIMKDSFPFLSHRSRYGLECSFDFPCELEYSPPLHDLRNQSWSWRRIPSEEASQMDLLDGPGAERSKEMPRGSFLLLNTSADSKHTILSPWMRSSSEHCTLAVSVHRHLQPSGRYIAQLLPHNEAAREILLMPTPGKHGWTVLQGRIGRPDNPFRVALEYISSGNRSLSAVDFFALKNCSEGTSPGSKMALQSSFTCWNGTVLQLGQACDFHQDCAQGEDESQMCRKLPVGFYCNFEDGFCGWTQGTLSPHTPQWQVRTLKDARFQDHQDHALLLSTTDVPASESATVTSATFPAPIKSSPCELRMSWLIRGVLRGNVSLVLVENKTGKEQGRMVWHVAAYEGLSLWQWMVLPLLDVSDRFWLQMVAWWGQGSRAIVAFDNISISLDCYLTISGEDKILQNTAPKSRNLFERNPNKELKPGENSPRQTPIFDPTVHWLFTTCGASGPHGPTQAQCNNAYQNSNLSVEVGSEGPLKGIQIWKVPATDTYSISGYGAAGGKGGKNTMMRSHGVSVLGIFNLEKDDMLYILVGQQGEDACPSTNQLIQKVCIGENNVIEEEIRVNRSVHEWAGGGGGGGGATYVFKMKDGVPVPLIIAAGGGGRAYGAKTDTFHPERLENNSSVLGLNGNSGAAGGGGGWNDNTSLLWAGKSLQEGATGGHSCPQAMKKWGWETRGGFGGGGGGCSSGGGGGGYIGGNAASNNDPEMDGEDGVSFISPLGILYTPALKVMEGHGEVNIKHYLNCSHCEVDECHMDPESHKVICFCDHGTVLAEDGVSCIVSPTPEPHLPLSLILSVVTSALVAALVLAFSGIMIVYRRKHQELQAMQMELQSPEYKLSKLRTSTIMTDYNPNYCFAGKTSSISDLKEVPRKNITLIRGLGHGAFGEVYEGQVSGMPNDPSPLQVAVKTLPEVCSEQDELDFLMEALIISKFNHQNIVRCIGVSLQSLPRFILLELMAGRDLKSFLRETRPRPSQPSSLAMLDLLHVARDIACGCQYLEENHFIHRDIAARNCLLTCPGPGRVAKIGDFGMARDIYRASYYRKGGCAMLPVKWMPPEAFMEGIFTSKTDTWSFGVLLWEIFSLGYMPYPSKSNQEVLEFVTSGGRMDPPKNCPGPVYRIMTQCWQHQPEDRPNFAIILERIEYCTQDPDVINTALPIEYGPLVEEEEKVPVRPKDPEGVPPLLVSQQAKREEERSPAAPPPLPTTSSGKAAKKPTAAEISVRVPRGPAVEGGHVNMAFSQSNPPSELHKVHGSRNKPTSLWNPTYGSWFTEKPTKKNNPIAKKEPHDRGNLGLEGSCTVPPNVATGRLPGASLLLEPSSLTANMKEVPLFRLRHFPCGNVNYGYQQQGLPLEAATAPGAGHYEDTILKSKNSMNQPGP
Chain of ALK (Q9UM73 19-1620): as the sequence (Q9UM73 19-1620 G1202R) above, with R1184G counted along it
Chain of EGFR^Del19/T790M/C797S (P00533 with tags, fused parts or gaps DEL746-750/T790M/C797S): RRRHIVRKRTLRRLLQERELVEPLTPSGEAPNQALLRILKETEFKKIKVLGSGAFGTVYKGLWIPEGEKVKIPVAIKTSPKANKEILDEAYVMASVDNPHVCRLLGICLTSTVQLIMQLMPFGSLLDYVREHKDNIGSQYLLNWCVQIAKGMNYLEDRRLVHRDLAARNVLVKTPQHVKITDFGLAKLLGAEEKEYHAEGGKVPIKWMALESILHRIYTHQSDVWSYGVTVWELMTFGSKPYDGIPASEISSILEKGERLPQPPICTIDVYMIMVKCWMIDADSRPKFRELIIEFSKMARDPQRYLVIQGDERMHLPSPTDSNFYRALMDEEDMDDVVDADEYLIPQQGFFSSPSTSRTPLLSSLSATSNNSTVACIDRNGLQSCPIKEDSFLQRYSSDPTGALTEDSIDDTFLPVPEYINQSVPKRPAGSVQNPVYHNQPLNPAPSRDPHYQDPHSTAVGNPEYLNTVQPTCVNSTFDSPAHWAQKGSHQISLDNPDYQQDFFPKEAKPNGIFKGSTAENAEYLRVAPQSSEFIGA

Broadly, the IC50 is the concentration at which inhibition is half-maximal. Consider `COc1cc(N2CCC(N3CCN(CCOCCOCCOCCNC(=O)COc4cccc5c4C(=O)N(C4CCC(=O)NC4=O)C5=O)CC3)CC2)ccc1Nc1ncc(Cl)c(Nc2ccccc2P(C)(C)=O)n1` (stereo not drawn) [Compound A3, N-(2-(2-(2-(2-(4-(1-(4-((5-chloro-4-((2-(dimethylphosphoryl)phenyl)amino)pyrimidin-2-yl)amino)-3-methoxyphenyl)piperidin-4-yl)piperazin-1-yl)ethoxy)ethoxy)ethoxy)ethyl)-2-((2-(2,6-dioxopiperidin-3-yl)-1,3-dioxoisoindolin-4-yl)oxy)acetamide], for which the IC50 on EGFR^Del19/T790M/C797S and at EGFR^L858R/T790M/C797S was 1 to 100 nM throughout.
On to `COc1cc(N2CCC(N3CCN(CCCCCCCNc4cccc5c4CN(C4CCC(=O)NC4=O)C5=O)CC3)CC2)ccc1Nc1ncc(Cl)c(Nc2ccccc2P(C)(C)=O)n1` (stereo not drawn) [Compound A12, 3-(4-((7-(4-(1-(4-((5-chloro-4-((2-(dimethylphosphoryl)phenyl)amino)pyrimidin-2-yl)amino)-3-methoxyphenyl)piperidin-4-yl)piperazin-1-yl)heptyl)amino)-1-oxoisoindolin-2-yl)piperidine-2,6-dione], for which the 50% inhibitory concentration (IC50) is 1 to 100 nM at EGFR^L858R/T790M/C797S, 1 to 100 nM at ALK and 101 to 200 nM at ALK^G1202R. The GI50 (in assay [1]; at Ba/F3(EML4-ALK) cells) was 1 to 100 nM each time.
Consider `COc1cc(N2CCC(N3CCN(CCCCCCCCCNc4cccc5c4CN(C4CCC(=O)NC4=O)C5=O)CC3)CC2)ccc1Nc1ncc(Cl)c(Nc2ccccc2P(C)(C)=O)n1` (stereo not drawn) [Compound A13, 3-(4-((9-(4-(1-(4-((5-chloro-4-((2-(dimethylphosphoryl)phenyl)amino)pyrimidin-2-yl)amino)-3-methoxyphenyl)piperidin-4-yl)piperazin-1-yl)nonyl)amino)-1-oxoisoindolin-2-yl)piperidine-2,6-dione], for which the IC50 is 101 to 200 nM on EGFR^L858R/T790M/C797S, 1 to 100 nM against ALK and over 300 nM against ALK^G1202R. Besides, the values for the GI50 (in assay [1]; on Ba/F3(EML4-ALK) cells) were 101 to 200 nM and 1 to 100 nM, respectively.
For the compound `COc1cc(N2CCC(N3CCN(CC(=O)Nc4cccc5c4CN(C4CCC(=O)NC4=O)C5=O)CC3)CC2)ccc1Nc1ncc(Cl)c(Nc2ccccc2P(C)(C)=O)n1` (stereo not drawn) [Compound A17, 2-(4-(1-(4-((5-chloro-4-((2-(dimethylphosphoryl)phenyl)amino)pyrimidin-2-yl)amino)-3-methoxyphenyl)piperidin-4-yl)piperazin-1-yl)-N-(2-(2,6-dioxopiperidin-3-yl)-1-oxoisoindolin-4-yl)acetamide], the concentration for half-maximal inhibition (IC50) at EGFR^Del19/T790M/C797S and on EGFR^L858R/T790M/C797S was 1 to 100 nM throughout.
As to `COc1cc(N2CCC(N3CCN(CC(=O)N4CC(COc5cccc6c5C(=O)N(C5CCC(=O)NC5=O)C6=O)C4)CC3)CC2)ccc1Nc1ncc(Cl)c(Nc2ccccc2P(C)(C)=O)n1` (stereo not drawn) [Compound C94, 4-((1-(2-(4-(1-(4-((5-chloro-4-((2-(dimethylphosphoryl)phenyl)amino)pyrimidin-2-yl)amino)-3-methoxyphenyl)piperidin-4-yl)piperazin-1-yl)acetyl)azetidin-3-yl)methoxy)-2-(2,6-dioxopiperidin-3-yl)isoindoline-1,3-dione], the IC50 on EGFR^L858R/T790M/C797S, against ALK and against ALK^G1202R was 1 to 100 nM throughout. The GI50 in assay [1] is over 300 nM.
In the case of `COc1cc(N2CCC(N3CCN(CC4(COc5cccc6c5C(=O)N(C5CCC(=O)NC5=O)C6=O)CC4)CC3)CC2)ccc1Nc1ncc(Cl)c(Nc2ccccc2P(C)(C)=O)n1` (stereo not drawn) [Compound C106, 4-((1-((4-(1-(4-((5-chloro-4-((2-(dimethylphosphoryl)phenyl)amino)pyrimidin-2-yl)amino)-3-methoxyphenyl)piperidin-4-yl)piperazin-1-yl)methyl)cyclopropyl)methoxy)-2-(2,6-dioxopiperidin-3-yl)isoindoline-1,3-dione], the IC50 on EGFR^L858R/T790M/C797S was 1 to 100 nM; at ALK it was 1 to 100 nM; on ALK^G1202R, 201 to 300 nM. Besides, in assay [1], the GI50 is over 300 nM.
In the case of `COc1cc(N2CCC(N3CCN(CC(=O)OCC4(COc5cccc6c5C(=O)N(C5CCC(=O)NC5=O)C6=O)CC4)CC3)CC2)ccc1Nc1ncc(Cl)c(Nc2ccccc2P(C)(C)=O)n1` (stereo not drawn) [Compound C107, 2-(4-(1-(4-((5-chloro-4-((2-(dimethylphosphoryl)phenyl)amino)pyrimidin-2-yl)amino)-3-methoxyphenyl)piperidin-4-yl)piperazin-1-yl)acetate (1-(((2-(2,6-dioxopiperidin-3-yl)-1,3-dioxoisoindolin-4-yl)oxy)methyl)cyclopropyl)methyl ester], the half-inhibitory concentration (IC50) at EGFR^L858R/T790M/C797S was in the range of 1 to 100 nM; against ALK it was 1 to 100 nM; against ALK^G1202R it was 101 to 200 nM. Also, the GI50 in assay [1] is 101 to 200 nM.
In the case of `COc1cc(N2CCC(N3CCN(CC(=O)N4CCC[C@H]4COc4cccc5c4C(=O)N(C4CCC(=O)NC4=O)C5=O)CC3)CC2)ccc1Nc1ncc(Cl)c(Nc2ccccc2P(C)(C)=O)n1` (stereo partly drawn) [Compound C109, 4-(((S)-1-(2-(4-(1-(4-((5-chloro-4-((2-(dimethylphosphoryl)phenyl)amino)pyrimidin-2-yl)amino)-3-methoxyphenyl)piperidin-4-yl)piperazin-1-yl)acetyl)pyrrolidin-2-yl)methoxy)-2-(2,6-dioxopiperidin-3-yl)isoindoline-1,3-dione], the half-maximal inhibitory concentration (IC50) at EGFR^L858R/T790M/C797S, against ALK and against ALK^G1202R was 1 to 100 nM each time. Also, the GI50 in assay [1] is over 300 nM.
Consider `COc1cc(N2CCC(N3CCN(CCCCCC#Cc4ccc5c(c4)CN(C4CCC(=O)NC4=O)C5=O)CC3)CC2)ccc1Nc1ncc(Cl)c(Nc2ccccc2P(C)(C)=O)n1` (stereo not drawn) [Compound C190, 3-(5-(7-(4-(1-(4-((5-chloro-4-((2-(dimethylphosphoryl)phenyl)amino)pyrimidin-2-yl)amino)-3-methoxyphenyl)piperidin-4-yl)piperazin-1-yl)hept-1-yn-1-yl)-1-oxoisoindolin-2-yl)piperidine-2,6-dione], for which the GI50 (in assay [2]; at Ba/F3(EML4-ALK) cells) was 1 to 100 nM throughout. For the same compound, the figures for the concentration for half-maximal inhibition (IC50) against ALK and at ALK^G1202R were 1 to 100 nM and 201 to 300 nM, respectively.
`COc1cc(N2CCC(N3CCN(CCOCC#Cc4ccc5c(c4)CN(C4CCC(=O)NC4=O)C5=O)CC3)CC2)ccc1Nc1ncc(Cl)c(Nc2ccccc2P(C)(C)=O)n1` (stereo not drawn) [Compound C193, 3-(5-(3-(2-(4-(1-(4-((5-chloro-4-((2-(dimethylphosphoryl)phenyl)amino)pyrimidin-2-yl)amino)-3-methoxyphenyl)piperidin-4-yl)piperazin-1-yl)ethoxy)prop-1-yn-1-yl)-1-oxoisoindolin-2-yl)piperidine-2,6-dione]: the GI50 (in assay [2]; at Ba/F3(EML4-ALK) cells) was 1 to 100 nM throughout. Moreover, the 50% inhibitory concentration (IC50) fell in the range of 1 to 100 nM at ALK and 201 to 300 nM against ALK^G1202R.
Consider `COc1cc(N2CCC(N3CCN(CCCCCCC#Cc4ccc5c(c4)CN(C4CCC(=O)NC4=O)C5=O)CC3)CC2)ccc1Nc1ncc(Cl)c(Nc2ccccc2P(C)(C)=O)n1` (stereo not drawn) [Compound C194, 3-(5-(8-(4-(1-(4-((5-chloro-4-((2-(dimethylphosphoryl)phenyl)amino)pyrimidin-2-yl)amino)-3-methoxyphenyl)piperidin-4-yl)piperazin-1-yl)oct-1-yn-1-yl)-1-oxoisoindolin-2-yl)piperidine-2,6-dione], for which the GI50 (in assay [2]; at Ba/F3(EML4-ALK) cells) was 1 to 100 nM each time. The half-inhibitory concentration (IC50) on ALK is 1 to 100 nM; against ALK^G1202R, over 300 nM.
